US20160310477A1, “CANCER TREATMENTS USING COMBINATIONS OF MEK TYPE 1 AND ERK INHIBITORS” (BIOMED VALLEY DISCOVERIES, INC., priority 2013, published 2016)

Tests used:
[1] = tested on: MAPK signaling in A375 cells; test: Western blot of MAPK signaling, cell cycle and apoptosis markers; type: cell-based, human
[2] = tested on: MAPK signaling in HCT116 cells; test: Western blot of MAPK signaling markers; type: cell-based, human; settings: HCT116, 4 hours, micromolar concentrations
Procedure: For Western blot studies, HCT116 cells (5×10^6) were seeded into 10 cm dishes in McCoy's 5A plus 10% FBS. […] Cells were allowed to adhere overnight prior to addition of the indicated amount of test compound (BVD-523) or vehicle control. Cells were treated for either 4 or 24 hours before isolation of whole-cell protein lysates, as specified below. Cells were harvested by trypsinisation, pelleted and snap frozen. Lysates were prepared with RIPA (Radio-Immunoprecipitation Assay) buffer, clarified by centrifugation and quantitated by bicinchoninic acid assay (BCA) assay. 20-50 μg of protein was resolved by SDS-PAGE electrophoresis, blotted onto PVDF membrane and probed using the antibodies detailed in Table 5 (for the 4-hour treatment) and Table 6 (for the 24-hour treatment) below. [table]

ERK = settings: Morris et al., 2013; cited from earlier work

SMILES	cyclin-D1 level ([1]; 24 hours of treatment)	phosphorylation of ERK-dependent residues (T359/S363) in RSK 1 and 2 proteins ([1]; A375, 4 hours, micromolar concentrations)	Bim-EL level ([1]; A375, prolonged treatment)	apoptosis / PARP cleavage ([1]; A375, prolonged treatment)	MAPK feedback phosphatase DUSP6 level ([1]; BRAF mutant cell line, 24 hours of treatment)	autophosphorylation of ERK ([1]; FIG. 1 Western blot)	concentrations required to induce changes in substrate phosphorylation and effector targets of ERK ([1]; RAF and RAS mutant cancer cells, Western blot, 4 or 24 h)	phosphorylation of ERK-dependent residues (T359/S363) in RSK 1 and 2 proteins [2]	autophosphorylation of ERK (ERK)
CC(C)Nc1cc(-c2c[nH]c(C(=O)N[C@H](CO)c3cccc(Cl)c3)c2)c(Cl)cn1 [BVD-523]	greatly reduced	reduced	increased	increased apoptosis was not observed	greatly reduced	allows for the autophosphorylation of ERK	low micromolar range	reduced	
O=C(Nc1ccc2[nH]nc(-c3ccncc3)c2c1)[C@@H]1CCN(CC(=O)N2CCN(c3ccc(-c4ncccn4)cc3)CC2)C1 [SCH772984]									inhibits autophosphorylation of ERK
